Measurements from the CheMixHub viscosity set.
± gives the uncertainty stated by the source.

Test: xn = mol fraction of the nth substance listed

NCCO.O=CO + CC(C)(N)CO
viscosity [mPa·s], 100 kPa
Conditions	x1 = 0.1475	x1 = 0.2287	x1 = 0.3157	x1 = 0.409	x1 = 0.5093	x1 = 0.6175	x1 = 0.7346
298.15 K	170.6 ± 69	165.1 ± 66	148.3 ± 60	126.5 ± 51	107.4 ± 43	84.75 ± 34	64.21 ± 26
303.15 K	118.8 ± 48	113 ± 45	103.2 ± 41	90.68 ± 36	78.55 ± 31	62.99 ± 25	49.24 ± 20
308.15 K	82.33 ± 33	79.18 ± 32	74.33 ± 30	66.23 ± 27	58.35 ± 23	47.99 ± 19	38.25 ± 15
313.15 K	58.68 ± 23	57.28 ± 23	54.44 ± 22	49.47 ± 20	44.41 ± 18	37.11 ± 15	30.16 ± 12
318.15 K	42.89 ± 17	42.1 ± 17	40.82 ± 16	37.69 ± 15	34.31 ± 14	29.35 ± 12	24.25 ± 9.7
323.15 K	31.84 ± 13	31.65 ± 13	31.24 ± 12	29.32 ± 12	27.04 ± 11	23.55 ± 9.4	19.78 ± 7.9

Cc1ccc(C)cc1 + CC(C)=O
307.35 K, 101.33 kPa
Conditions	viscosity [mPa·s]
x2 = 0.1403	0.5 ± 0.0092
x2 = 0.4308	0.429 ± 0.0086
x2 = 0.5768	0.4 ± 0.0084
x2 = 0.6298	0.385 ± 0.0083
x2 = 0.7285	0.353 ± 0.008
x2 = 0.9118	0.311 ± 0.0077

OCCOCCO + CC(C)=O
298.1 K, 101 kPa
Conditions	viscosity [mPa·s]
x1 = 0.2	0.682 ± 0.092
x1 = 0.4	1.669 ± 0.36
x1 = 0.5	2.655 ± 0.57
x1 = 0.6	4.301 ± 0.8
x1 = 0.8	11.1 ± 1.4

Cc1ccc(C)cc1 + CC(C)CC(C)(C)C
308.15 K, 101 kPa
Conditions	viscosity [mPa·s]
x2 = 0.072	0.5266 ± 0.0055
x2 = 0.1401	0.5074 ± 0.0053
x2 = 0.2197	0.4893 ± 0.0051
x2 = 0.3074	0.4732 ± 0.005
x2 = 0.4051	0.4595 ± 0.0049
x2 = 0.507	0.4479 ± 0.0048
x2 = 0.6185	0.44 ± 0.0047
x2 = 0.7382	0.4348 ± 0.0047
x2 = 0.8619	0.4333 ± 0.0046

O=Cc1ccccc1 + CC(C)CCO
298.1 K, 101 kPa
Conditions	viscosity [mPa·s]
x1 = 0.1103	2.842 ± 0.06
x1 = 0.202	2.39 ± 0.051
x1 = 0.2988	2.057 ± 0.045
x1 = 0.3333	1.959 ± 0.043
x1 = 0.4051	1.809 ± 0.04
x1 = 0.4839	1.67 ± 0.037
x1 = 0.6101	1.51 ± 0.034
x1 = 0.6944	1.44 ± 0.033
x1 = 0.7979	1.373 ± 0.032
x1 = 0.8987	1.34 ± 0.031

CC(C)CCCC(C)CCCC(C)CCCCC(C)CCCC(C)CCCC(C)C (stereo unspecified) + CC(C)CO
101 kPa
Conditions	viscosity [mPa·s]
298.15 K, x2 = 0.1032	22.85 ± 0.11
308.15 K, x2 = 0.1672	13.45 ± 0.07

CCCC[N+](CCCC)(CCCC)CCCC.[Cl-] + CC(C)C[C@H](N)C(=O)O
Conditions	viscosity [mPa·s]
313.15 K, 100 kPa, x1 = 0.9	943 ± 100

CC(C)CCCC(C)CCCC(C)CCCCC(C)CCCC(C)CCCC(C)C (stereo unspecified) + CC(C)O
viscosity [mPa·s], 101 kPa
Conditions	x2 = 0.0621	x2 = 0.218	x2 = 0.4022
298.15 K	–	19.65 ± 0.21	–
303.15 K	18.75 ± 0.21	15.45 ± 0.17	13.05 ± 0.14

C[N+](C)(C)CCO.[Cl-] + CC(O)CO
Conditions	viscosity [mPa·s]
293.15 K, 100 kPa, x1 = 0.25	89.38 ± 2
293.15 K, 101 kPa, x2 = 0.8	95.09 ± 2.8
293.15 K, 101.3 kPa, x2 = 0.7498	94.05 ± 4.2
293.15 K, 101.3 kPa, x2 = 0.8003	80.19 ± 3.5
293.15 K, 101.3 kPa, x2 = 0.8328	73.34 ± 3.1
293.15 K, 101.3 kPa, x2 = 0.8567	70.57 ± 2.9
298 K, 100 kPa, x1 = 0.333	95.5 ± 7.9
298 K, 101.3 kPa, x1 = 0.333	70 ± 2
298.15 K, 100 kPa, x1 = 0.25	68.43 ± 1.4
298.15 K, 101.3 kPa, x2 = 0.7498	72.1 ± 3.1
298.15 K, 101.3 kPa, x2 = 0.8003	61.49 ± 2.5
298.15 K, 101.3 kPa, x2 = 0.8328	57.12 ± 2.3
298.15 K, 101.3 kPa, x2 = 0.8567	55.1 ± 2.2
298.15 K, 101.33 kPa, x2 = 0.7	36 ± 4
303 K, 100 kPa, x1 = 0.333	74.2 ± 6.1
303.15 K, 100 kPa, x1 = 0.25	53.34 ± 1.1
303.15 K, 101 kPa, x2 = 0.8	56.64 ± 1.2
303.15 K, 101.3 kPa, x2 = 0.7498	56.26 ± 2.3
303.15 K, 101.3 kPa, x2 = 0.8003	47.74 ± 2
303.15 K, 101.3 kPa, x2 = 0.8328	44.41 ± 1.8
303.15 K, 101.3 kPa, x2 = 0.8567	43.01 ± 1.8
308 K, 100 kPa, x1 = 0.333	57.6 ± 4.7
308.15 K, 100 kPa, x1 = 0.25	42.26 ± 0.88
308.15 K, 101.3 kPa, x2 = 0.7498	44.5 ± 1.9
308.15 K, 101.3 kPa, x2 = 0.8003	37.47 ± 1.6
308.15 K, 101.3 kPa, x2 = 0.8328	34.61 ± 1.4
308.15 K, 101.3 kPa, x2 = 0.8567	33.33 ± 1.4
313 K, 100 kPa, x1 = 0.333	46.2 ± 3.7
313.15 K, 100 kPa, x1 = 0.25	33.93 ± 0.71
313.15 K, 101 kPa, x2 = 0.8	36.06 ± 0.77
313.15 K, 101.3 kPa, x2 = 0.7498	35.89 ± 1.5
313.15 K, 101.3 kPa, x2 = 0.8003	30.4 ± 1.3
313.15 K, 101.3 kPa, x2 = 0.8328	27.67 ± 1.1
313.15 K, 101.3 kPa, x2 = 0.8567	26.42 ± 1.1
318 K, 100 kPa, x1 = 0.333	37.9 ± 3.1
318.15 K, 100 kPa, x1 = 0.25	27.71 ± 0.58
318.15 K, 101.3 kPa, x2 = 0.7498	29.15 ± 1.2
318.15 K, 101.3 kPa, x2 = 0.8003	24.7 ± 1
318.15 K, 101.3 kPa, x2 = 0.8328	22.49 ± 0.93
318.15 K, 101.3 kPa, x2 = 0.8567	21.11 ± 0.87
323 K, 100 kPa, x1 = 0.333	31.8 ± 2.6
323 K, 101.3 kPa, x1 = 0.333	19 ± 2
323.15 K, 100 kPa, x1 = 0.25	22.88 ± 0.48
323.15 K, 101 kPa, x2 = 0.8	24.26 ± 0.53
323.15 K, 101.3 kPa, x2 = 0.7498	24.25 ± 1
323.15 K, 101.3 kPa, x2 = 0.8003	20.43 ± 0.85
323.15 K, 101.3 kPa, x2 = 0.8328	18.56 ± 0.77
323.15 K, 101.3 kPa, x2 = 0.8567	17.41 ± 0.72

Cc1ccc(C)cc1 + CCC(C)O
308.15 K, 101 kPa
Conditions	viscosity [mPa·s]
x2 = 0.0429	0.553 ± 0.012
x2 = 0.1028	0.562 ± 0.012
x2 = 0.2013	0.591 ± 0.012
x2 = 0.3192	0.645 ± 0.014
x2 = 0.4044	0.721 ± 0.015
x2 = 0.5085	0.792 ± 0.017
x2 = 0.6631	0.932 ± 0.019
x2 = 0.7494	1.111 ± 0.023
x2 = 0.8285	1.32 ± 0.027
x2 = 0.9012	1.61 ± 0.033
x2 = 0.9684	1.782 ± 0.037

CC(C)CCCC(C)CCCC(C)CCCCC(C)CCCC(C)CCCC(C)C (stereo unspecified) + CCCC
viscosity [mPa·s]
Conditions	x1 = 0.161	x1 = 0.162	x1 = 0.316	x1 = 0.319	x1 = 0.555	x1 = 0.559	x1 = 0.721	x1 = 0.724
293.15 K, 101 kPa	1.06 ± 0.02	–	3 ± 1	–	9.55 ± 0.18	–	16.5 ± 0.3	–
293.15 K, 101.33 kPa	1.06 ± 0.021	–	3 ± 0.06	–	9.55 ± 0.19	–	16.5 ± 0.33	–
313.15 K, 101 kPa	–	0.797 ± 0.015	–	2.04 ± 0.04	–	5.26 ± 0.1	–	8.16 ± 0.15
313.15 K, 101.33 kPa	–	0.797 ± 0.016	–	2.04 ± 0.041	–	5.26 ± 0.11	–	8.16 ± 0.16

CC(C)CCCC(C)CCCC(C)CCCCC(C)CCCC(C)CCCC(C)C (stereo unspecified) + CCCCCC
viscosity [mPa·s]
Conditions	293.15 K	298.15 K	313.15 K
100 kPa, x1 = 0.235	1.91 ± 0.12	–	1.36 ± 0.08
100 kPa, x1 = 0.511	7.76 ± 0.46	–	4.15 ± 0.25
100 kPa, x1 = 0.743	17.5 ± 1.1	–	8.25 ± 0.49
101 kPa, x1 = 0.129	0.972 ± 0.018	–	0.739 ± 0.014
101 kPa, x1 = 0.268	2.45 ± 0.05	–	1.63 ± 0.03
101 kPa, x1 = 0.469	6.3 ± 0.12	–	3.62 ± 0.07
101 kPa, x1 = 0.5661	–	10.15 ± 0.4	–
101 kPa, x1 = 0.762	18.3 ± 0.3	–	8.84 ± 0.16
101.33 kPa, x1 = 0.129	0.972 ± 0.019	–	0.739 ± 0.015
101.33 kPa, x1 = 0.268	2.45 ± 0.049	–	1.63 ± 0.033
101.33 kPa, x1 = 0.469	6.3 ± 0.13	–	3.62 ± 0.072
101.33 kPa, x1 = 0.762	18.3 ± 0.37	–	8.84 ± 0.18

CCCCCCCCCCCCCCCCCC(=O)OC + CCCCCC
viscosity [mPa·s], 101 kPa
Conditions	x1 = 0.05	x1 = 0.1	x1 = 0.15	x1 = 0.2	x1 = 0.25	x1 = 0.3
298 K	0.48 ± 0.01	0.67 ± 0.02	0.85 ± 0.02	1.08 ± 0.02	1.22 ± 0.03	1.41 ± 0.03
303 K	0.46 ± 0.01	0.63 ± 0.01	0.79 ± 0.02	0.99 ± 0.02	1.13 ± 0.02	1.3 ± 0.03
308 K	0.44 ± 0.01	0.59 ± 0.01	0.74 ± 0.02	0.92 ± 0.02	1.05 ± 0.02	1.21 ± 0.03
313 K	0.42 ± 0.01	0.55 ± 0.01	0.69 ± 0.02	0.85 ± 0.02	0.98 ± 0.02	1.12 ± 0.02
